Test results: patent publication US5240962A, “Antiobesity and fat-reducing agents” (priority 1991, dated 1993)
Read-outs that look alike come from different tables or passages of the source.

Columns and labels:
[1] = molecular target: T1, α-glucosidase (EC3.2.1.20) (Saccharomyces cerevisiae, UniProt P53341); experiment: α-Glucosidase inhibition; format: biochemical
T1 construct: purchased Sigma Chemical Company
Protocol: The assay was conducted essentially according to the procedure of H. L. Lai, as described in Biochem. Biophys.
The α-glucosidase (EC3.2.1.20) was purchased from Sigma Chemical Company. The enzyme solution (100 μg/ml, 0.1 ml), 0.1 M phosphate buffer (pH 6.8, 2.55 ml), 10 mM nitrophenyl glucoside (0.1 ml), and a sample solution in DMSO (0.15 ml) were combined and incubated for 10 minutes at 37° C. After incubation, the hydrolysis was stopped by the addition of 1 ml of 16(w/v)% of sodium carbonate. Liberated p-nitrophenol was measured at 400 nm.

[2] = molecular target: T2, invertase (or β-fructofuranosidase; EC 3.2.1.26) (Saccharomyces cerevisiae, UniProt P00724); experiment: Invertase inhibition; format: biochemical; details: 200 μg/ml; pH 4.5, sucrose substrate; read-out: % Inhibition of invertase enzyme activity
T2 construct: purchased Sigma Chemical Company
T2 sequence (P00724 20-532): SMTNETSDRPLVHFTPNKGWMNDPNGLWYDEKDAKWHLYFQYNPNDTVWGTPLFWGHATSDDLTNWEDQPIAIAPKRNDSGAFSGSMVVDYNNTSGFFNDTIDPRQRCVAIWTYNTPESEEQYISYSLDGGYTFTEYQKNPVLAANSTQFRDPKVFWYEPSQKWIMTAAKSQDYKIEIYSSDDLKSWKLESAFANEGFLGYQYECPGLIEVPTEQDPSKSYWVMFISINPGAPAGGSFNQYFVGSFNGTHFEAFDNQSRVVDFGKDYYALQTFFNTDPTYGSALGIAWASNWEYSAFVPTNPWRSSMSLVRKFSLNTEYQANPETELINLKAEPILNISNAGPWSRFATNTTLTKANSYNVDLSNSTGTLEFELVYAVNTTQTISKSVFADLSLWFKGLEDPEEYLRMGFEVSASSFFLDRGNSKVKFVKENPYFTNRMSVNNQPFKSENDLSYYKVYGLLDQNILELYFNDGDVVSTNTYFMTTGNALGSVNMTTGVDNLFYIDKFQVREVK
Protocol: The following phenols (compound numbers correspond to those designated in Example 1) were tested at a concentration of 200 μg/ml for their ability to inhibit invertase enzyme activity. The assay was conducted essentially according to the procedure of I. H. Segel, et al., as described in Biochemical Calculation, John Wiley Sons, New York, p. 287-290 (1976).
The invertase (or β-fructofuranosidase; EC 3.2.1.26) was purchased from Sigma Chemical Company. The enzyme solution (100 μg/ml, 0.1 ml), 0.2 M acetate buffer (pH 4.5, 0.2 ml), 0.5 M sucrose (0.2 ml), and a sample solution in water/DMSO (0.6 ml) were combined and incubated for 10 minutes at 37° C. After incubation, the hydrolysis was stopped by the addition of Nelson reagent. Liberated reduced sugar was measured at 500 nm by the method of Somogyi-Nelson [N. Nelson, et al., J. Biol. Chem., 153, 375 (1944)].

[3] = Toxicity in mice over 4 weeks; format: in vivo; details: 300 mg/kg dose, over a period of 4 weeks
Text: This finding, combined with in vitro enzyme inhibiting activities, provides evidence that the naturally occurring phenols of the formula (I) have unexpected utility in treating obesity in a mammalian subject.

[4] = Effect on body fat in rats on carbohydrate enriched diet; format: in vivo, Sprague-Dawley rats; details: for Epididymal Fat Weight / Final Body Weight / Inguinal Fat Weight: male rats
Text: Male Sprague-Dawley weanling rats (Bioresearch Services, Oriental Yeast Co. Ltd.) of three weeks old were used in this study. They were allotted to two treatment groups of five rats when they weighed an average of about 65 g. The animals were fed carbohydrate enriched diets ad libitum for a period of 31 days.
Control rate received the above diet. Two groups received different levels of compound 1 (Example 1), 0.1% and 0.2%, respectively. At the conclusion of the test, all animals were sacrificed. Inguinal fat, epididymal fat, liver, kidney, spleen, lung, heart, thymus gland, brown adipose tissue and pectoral muscle were excised and weighted.

[5] = Effect on fat content of broiler chickens; format: in vivo; details: 27 days; for Fat Weight / Final Body Weight: broilers
Protocol: Four groups of 5 seven-day old broiler having an average weight of 129 g were used. A test diet was available ad libitum to all birds during the test period (27 days).
Control birds received no test compound. […] At the conclusion of the test, all birds were sacrificed and processed to determine fat weights and body weights. Feed intake was also recorded.

[6] = Effect on body weight of slightly obese mice, drug-food mixture; format: in vivo, mice (ICR); details: for Body weight change compared with control group (in words): 4 weeks; for Body weight gain, Week Four / Body weight gain, Week One / Body weight gain, Week Three / Body weight gain, Week Two: ad libitum, female ICR mice
Protocol: Slightly obese female mice (ICR) having an average weight of 20-25 g were used in these studies. Compound 1 (Example 1; anacardic acid) was administered as a drug-food mixture. Normal mouse chow was powdered and the drug added to achieve a final concentration of 1 mg (low dose), 3 mg (intermediate dose), and 10 mg (high dose) per 100 g of food. The powdered chow was then repelleted into its usual form. Control chow was similarly prepared without addition of drug. Four groups of ten animals were assigned to receive normal chow (controls) or the drug in the low dose, in the intermediate dose or in the high dose. The animals were fed ad libitum over a 4-week period.

[7] = 10 minutes at 37° C., pH 6.8, nitrophenyl glucoside substrate
[8] = High dose, 10 mg per 100 g of food
[9] = Intermediate dose, 3 mg per 100 g of food
[10] = Low dose, 1 mg per 100 g of food

T1 sequence (P53341 whole entry): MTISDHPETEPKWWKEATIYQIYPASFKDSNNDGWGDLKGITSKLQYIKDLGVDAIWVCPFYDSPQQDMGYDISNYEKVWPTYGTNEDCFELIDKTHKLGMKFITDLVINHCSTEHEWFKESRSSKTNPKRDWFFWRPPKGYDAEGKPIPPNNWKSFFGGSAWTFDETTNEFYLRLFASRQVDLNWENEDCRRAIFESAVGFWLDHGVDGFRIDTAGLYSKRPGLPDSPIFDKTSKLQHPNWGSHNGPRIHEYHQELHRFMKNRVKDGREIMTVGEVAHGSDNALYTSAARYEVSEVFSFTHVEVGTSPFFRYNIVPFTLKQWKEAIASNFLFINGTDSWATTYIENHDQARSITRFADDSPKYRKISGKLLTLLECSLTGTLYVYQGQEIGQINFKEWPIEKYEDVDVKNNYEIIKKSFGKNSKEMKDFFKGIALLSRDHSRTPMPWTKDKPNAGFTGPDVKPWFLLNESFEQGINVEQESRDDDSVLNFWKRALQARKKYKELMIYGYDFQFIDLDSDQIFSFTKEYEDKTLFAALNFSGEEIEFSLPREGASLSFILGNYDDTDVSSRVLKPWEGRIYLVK

Work on `CCC/C=C\C/C=C\CCCCCCCc1cccc(O)c1C(=O)O` [Compound 3, 6-[8(z), 11(z)-pentadecadienyl] salicylic acid] yielded an IC50 [1, 7] of 3.77 µM.

In the case of `C=CC/C=C\C/C=C\CCCCCCCc1cccc(O)c1C(=O)O` [Compound 4, 6-[8(z), 11(z), 14pentadecatrienyl] salicylic acid], the inhibition at 200 µg/mL [2] is reported as 73% and the IC50 [1, 7] is reported as 0.876 µM.

Work on `CCCCCCCCCCCCCCCc1cc(O)cc(O)c1` [Compound 13, 5-Pentadecylresorcinol] yielded an IC50 [1, 7] of 268 µM.

For `C=CC/C=C\C/C=C\CCCCCCCc1cc(O)c(C)c(O)c1` [Compound 12, 2-methyl-5-[8(z), 11(z), 14-pentadecatrienyl]resorcinol], the inhibition at 200 µg/mL [2] was 79% and the IC50 [1, 7] was 170 µM.

With `C=CC/C=C\C/C=C\CCCCCCCc1cc(O)cc(O)c1` [Compound 16, 5-[8(z), 11(z), 14-pentadecatrienyl]resorcinol] the inhibition at 200 µg/mL [2] was 32% and the IC50 [1] was 44.5 µM.

With `CCCCCCCCCCCCCCCc1cccc(O)c1C(=O)O` [Compound 1, 6 - Pentadecylsalicylic Acid] the Toxicity [3] was “no toxicity”, the “Epididymal Fat Weight” value ([4]; 0.1% in diet, 31 days) was 3.2 g and the “Final Body Weight” value ([4]; 0.1% in diet, 31 days) was 301.6 g. For the same compound, the “Inguinal Fat Weight” value ([4]; 0.1% in diet, 31 days) was 7.1 g, the “Epididymal Fat Weight” value ([4]; 0.2% in diet, 31 days) was 3.7 g and the “Final Body Weight” value ([4]; 0.2% in diet, 31 days) was 311.0 g. For the same compound, the “Inguinal Fat Weight” value ([4]; 0.2% in diet, 31 days) was 7.5 g, the “Reduction in fat deposition” value ([4]; anacardic acid in the animal diet, statement on Tables 4 and 7 (broilers and rats)) was no less than 20% and the “Loss of initial body weight” value ([4]; rats receiving anacardic acid in diet, 31 days) was “less than 10%”. For the same compound, the “Fat Weight” value ([5]; 0.1% in diet) was 12 g, the “Final Body Weight” value ([5]; 0.1% in diet) was 110 g and the “Fat Weight” value ([5]; 0.2% in diet) was 10 g. The “Final Body Weight” value ([5]; 0.2% in diet) was 108 g, the “Loss of the initial body weight” value ([5]; birds receiving anacardic acid in diet) was “approximately 10%” and the “Body weight change compared with control group (in words)” value (shortened to “Body weight change”) [6, 8] was “gained less weight than mice in the control group”. For the same compound, the “Body weight gain, Week Four” value [6, 8] was “+4.75 g”, the “Body weight gain, Week One” value [6, 8] was “+0.31 g” and the “Body weight gain, Week Three” value [6, 8] was “+4.13 g”. For the same compound, the “Body weight gain, Week Two” value [6, 8] was “+1.88 g”, the “Body weight change” value [6, 9] was “gained less weight than mice in the control group” and the “Body weight gain, Week Four” value [6, 9] was “+5.00 g”. The “Body weight gain, Week One” value [6, 9] was “+0.56 g”, the “Body weight gain, Week Three” value [6, 9] was “+4.5 g” and the “Body weight gain, Week Two” value [6, 9] was “+2.13 g”. The “Body weight change” value [6, 10] was “no significant deviation in body weight from the control group”, the “Body weight gain, Week Four” value [6, 10] was “+5.13 g” and the “Body weight gain, Week One” value [6, 10] was “+0.63 g”. The “Body weight gain, Week Three” value [6, 10] was “+4.63 g”, the “Body weight gain, Week Two” value [6, 10] was “+2.19 g” and the IC50 [1, 7] was 7.17 µM.

Work on `CCCCCCCCCCCCCCCc1cc(O)c(C)c(O)c1` [Compound 9, 2-Methyl-5-pentadecylresorcinol] yielded an IC50 [1, 7] of 38.9 µM.

In the case of `CCCCCCCCCCCCCCCc1cccc(O)c1` [Compound 5, 3 - Pentadecylphenol], the IC50 [1, 7] is reported as 483 µM.

`CCC/C=C\C/C=C\CCCCCCCc1cc(O)c(C)c(O)c1` [Compound 11, 2-methyl-5-[8(z), 11(z)-pentadecadienyl] resorcinol] showed an IC50 [1, 7] of 151 µM.

With `CCCCCC/C=C\CCCCCCCc1cc(O)c(C)c(O)c1` [Compound 10, 2-methyl-5-[8(z)-pentadecenyl]resorcinol] the IC50 [1, 7] was 165 µM.
